Results as given in US10189854B2, “Substituted pyrimidine compounds” (Grünenthal GmbH, priority 2014, dated 2019).

Target: human PDE4B1 (Homo sapiens (Human), UniProt Q07343)
Assay: TR-FRET assay using the LANCE Ultra cAMP kit to determine the activity of hPDE4B1
Assay type: biochemical
Conditions: IC50 inhibition of PDE4B, mean
Excerpt: TR-FRET Assay Using the LANCE® Ultra cAMP Kit to Determine the Activity of hPDE4B1
The effects of the compounds on the activity of the human PDE4B1 was quantified by measuring the production of 5′AMP from cAMP using a human recombinant enzyme expressed in Sf9 cells and the LANCE® Ultra cAMP kit, a TR-FRET detection method from PerkinElmer. The human PDE4B1 enzyme was purchased from SignalChem Lifesciences (Catalog# P92-31BG, Lot# H296-2).
The test compound, reference compound or water (control) was mixed with the enzyme (0.96 U) in a reaction buffer containing 50 mM Tris-HCl, 50 mM MgCl2 and 5 mM DTT (pH 8.5). Thereafter, the reaction was initiated by addition of 500 nM cAMP (substrate) and the mixture was incubated for 30 minutes at room temperature. For control basal measurements, the enzyme was omitted from the reaction mixture. After 30 minutes, the reaction was stopped and diluted by a factor of 100 with the reaction buffer supplemented with 500 μM IBMX. The fluorescence donor (europium chelate-labeled cAMP) and the fluorescence acceptor (anti-cAMP antibody labeled with the ULight™ dye) were then added together with 500 μM IBMX to a 10 μl aliquot. After 60 minutes, the fluorescence transfer corresponding to the amount of residual cAMP was measured at λex=337 nm, λem=620 nm and λem=665 nm using a microplate reader (PHERAstar, BMG). The enzyme activity was determined by dividing the signal measured at 665 nm by that measured at 620 nm (ratio) multiplied by 10000. The results were expressed as percent inhibition of the control enzyme activity. IC50 values (IC50=concentration causing a half-maximal inhibition of control specific activity) were derived from dose response measurements with ten different concentrations (n=3; N=1-3).
Several compounds according to the invention are tested with above mentioned assay.

Chain of human PDE4B1 (Q07343 whole entry): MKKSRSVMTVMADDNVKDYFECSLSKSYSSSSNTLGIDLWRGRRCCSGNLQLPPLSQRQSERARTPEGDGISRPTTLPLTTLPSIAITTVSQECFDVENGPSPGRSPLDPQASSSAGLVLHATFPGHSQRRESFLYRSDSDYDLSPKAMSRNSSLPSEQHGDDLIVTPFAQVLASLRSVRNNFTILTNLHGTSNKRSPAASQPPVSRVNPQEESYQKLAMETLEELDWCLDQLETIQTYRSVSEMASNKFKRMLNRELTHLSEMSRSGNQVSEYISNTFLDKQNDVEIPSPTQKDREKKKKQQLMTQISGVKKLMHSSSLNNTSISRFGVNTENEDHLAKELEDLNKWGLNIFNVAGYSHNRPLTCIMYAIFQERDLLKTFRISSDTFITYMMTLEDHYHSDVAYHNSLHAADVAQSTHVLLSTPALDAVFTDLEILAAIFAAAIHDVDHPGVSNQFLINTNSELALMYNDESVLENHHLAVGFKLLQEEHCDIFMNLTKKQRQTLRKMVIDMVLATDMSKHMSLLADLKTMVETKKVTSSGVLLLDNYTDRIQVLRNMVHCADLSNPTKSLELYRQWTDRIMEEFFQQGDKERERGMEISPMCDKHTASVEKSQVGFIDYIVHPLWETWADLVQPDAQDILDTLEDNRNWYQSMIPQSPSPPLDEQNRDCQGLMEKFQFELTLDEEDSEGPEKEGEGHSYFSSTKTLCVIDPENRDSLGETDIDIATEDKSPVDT

| Structure (SMILES) | IC50 |
| --- | --- |
| CCc1ccnc(-c2cnc(N3CC4(CC4)c4ccc(C(=O)N5C[C@@H]6C[C@H]5CN6)cc43)nc2)c1 [Compound 298, [(1S,4S)-2,5-Diazabicyclo[2.2.1]heptan-2-yl]-[1-[5-(4-ethyl-pyridin-2-yl)-pyrimidin-2-yl]-spiro[1,2-dihydro-indole-3,1′-cyclopropane]-6-yl]-methanone] | < 0.1 µM |
| O=C(c1ccc2c(c1)N(c1ncc(-c3cc(C4(O)CC4)ccn3)cn1)CC21CC1)N1CCOCC1 [Compound 351, [1-[5-[4-(1-Hydroxy-cyclopropyl)-pyridin-2-yl]-pyrimidin-2-yl]-spiro[1,2-dihydro-indole-3,1′-cyclopropane]-6-yl]-morpholin-4-yl-methanone] | < 0.1 µM |
| CN(CCO)C(=O)c1ccc2c(c1)N(c1ncc(-c3cccc(C[S+](C)[O-])c3)cn1)CC21CC1 (stereo not shown) [Compound 342, N-(2-Hydroxy-ethyl)-N-methyl-1-[5-[3-[(methylsulfinyl)-methyl]-phenyl]-pyrimidin-2-yl]-spiro[1,2-dihydro-indole-3,1′-cyclopropane]-6-carboxylic acid amide] | < 0.1 µM |
| COCCN1CCN(C(=O)c2ccc3c(c2)N(c2ncc(-c4ccccc4F)cn2)CC32CC2)CC1 [Compound 235, [1-[5-(2-Fluorophenyl)-pyrimidin-2-yl]-spiro[1,2-dihydro-indole-3,1′-cylcopropane]-6-yl]-[4-(2-methoxy-ethyl)-piperazin-1-yl]-methanone] | 0.1 to 1 µM |
| Cc1ccnc(-c2cnc(N3CC4(CC4)c4ccc(C(=O)N5C[C@@H]6C[C@H]5CN6)cc43)nc2)c1 [Compound 297, [(1S,4S)-2,5-Diazabicyclo[2.2.1]heptan-2-yl]-[1-[5-(4-methyl-pyridin-2-yl)-pyrimidin-2-yl]-spiro[1,2-dihydro-indole-3,1′-cyclopropane]-6-yl]-methanone] | < 0.1 µM |
| CC(=O)Oc1cccc(-c2cnc(N3CC4(CC4)c4ccc(C(=O)N(C)CCO)cc43)nc2)c1 [Compound 358, Acetic acid [3-[2-[6-[(2-hydroxy-ethyl)-methyl-carbamoyl]-spiro[1,2-dihydro-indole-3,1′-cyclopropane]-1-yl]-pyrimidin-5-yl]-phenyl]ester] | < 0.1 µM |
| Cc1ccc(F)c(-c2cnc(N3CC4(CC4)c4ccc(C(=O)N(C)CCO)cc43)nc2)c1 [Compound 227, 1-[5-(2-Fluoro-5-methyl-phenyl)-pyrimidin-2-yl]-N-(2-hydroxy-ethyl)-N-methyl-spiro[1,2-dihydro-indole-3,1′-cyclopropane]-6-carboxylic acid amide] | < 0.1 µM |
| CN(CCO)C(=O)c1ccc2c(c1)N(c1ncc(-c3cc(N4CCCC4)ccn3)cn1)CC21CC1 [Compound 315, N-(2-Hydroxy-ethyl)-N-methyl-1-[5-(4-pyrrolidin-1-yl-pyridin-2-yl)-pyrimidin-2-yl]-spiro[1,2-dihydro-indole-3,1′-cyclopropane]-6-carboxylic acid amide] | < 0.1 µM |
| CN(CCO)C(=O)c1ccc2c(c1)N(c1ncc(-c3cc(C(C)(C)O)ccn3)cn1)CC21CC1 [Compound 314, N-(2-Hydroxy-ethyl)-1-[5-[4-(1-hydroxy-1-methyl-ethyl)-pyridin-2-yl]-pyrimidin-2-yl]-N-methyl-spiro[1,2-dihydro-indole-3,1′-cyclopropane]-6-carboxylic acid amide] | < 0.1 µM |
| O=C(O)C1CCCN(C(=O)c2ccc3c(c2)N(c2ncc(-c4ccccc4F)cn2)CC32CC2)C1 (stereo not shown) [Compound 238, 1-[1-[5-(2-Fluorophenyl)-pyrimidin-2-yl]-spiro[1,2-dihydro-indole-3,1′-cyclopropane]-6-carbonyl]-piperidine-3-carboxylic acid] | < 0.1 µM |
| CC(C)c1ccnc(-c2cnc(N3CC4(CC4)c4ccc(C(=O)N(C)CCO)cc43)nc2)c1 [Compound 242, N-(2-Hydroxy-ethyl)-1-[5-(4-isopropyl-pyridin-2-yl)-pyrimidin-2-yl]-N-methyl-spiro[1,2-dihydro-indole-3,1′-cyclopropane]-6-carboxylic acid amide] | < 0.1 µM |
| CN(CCO)C(=O)c1ccc2c(c1)N(c1ncc(-c3cc(C(C)(C)O)ccc3F)cn1)CC21CC1 [Compound 309, 1-[5-[2-Fluoro-5-(1-hydroxy-1-methyl-ethyl)-phenyl]-pyrimidin-2-yl]-N-(2-hydroxy-ethyl)-N-methyl-spiro[1,2-dihydro-indole-3,1′-cyclopropane]-6-carboxylic acid amide] | < 0.1 µM |
| CN(CCO)C(=O)c1ccc2c(c1)N(c1ncc(-c3cc(NCC4CC4)ccc3F)cn1)CC21CC1 [Compound 333, 1-[5-[5-(Cyclopropyl-methylamino)-2-fluoro-phenyl]-pyrimidin-2-yl]-N-(2-hydroxy-ethyl)-N-methyl-spiro[1,2-dihydro-indole-3,1′-cyclopropane]-6-carboxylic acid amide] | < 0.1 µM |
| CCNc1ccnc(-c2cnc(N3CC4(CC4)c4ccc(C(=O)N5CCOCC5)cc43)nc2)c1 [Compound 292, [1-[5-(4-Ethylamino-pyridin-2-yl)-pyrimidin-2-yl]-spiro[1,2-dihydro-indole-3,1′-cyclopropane]-6-yl]-morpholin-4-yl-methanone] | < 0.1 µM |
| CN(CCO)C(=O)c1ccc2c(c1)N(c1ncc(-c3ccc(F)cn3)cn1)CC21CC1 [Compound 232, 1-[5-(5-Fluoro-pyridin-2-yl)-pyrimidin-2-yl]-N-(2-hydroxy-ethyl)-N-methyl-spiro[1,2-dihydro-indole-3,1′-cyclopropane]-6-carboxylic acid amide] | < 0.1 µM |
| CN(C)C(=O)c1ccc2c(c1)N(c1ncc(-c3cc(N(C)C)ccn3)cn1)CC21CC1 [Compound 271, 1-[5-(4-Dimethylamino-pyridin-2-yl)-pyrimidin-2-yl]-N,N-dimethyl-spiro[1,2-dihydro-indole-3,1′-cyclopropane]-6-carboxylic acid amide] | < 0.1 µM |
| CN(CC(N)=O)C(=O)c1ccc2c(c1)N(c1ncc(-c3ccccc3F)cn1)CC21CC1 [Compound 256, N-(Carbamoyl-methyl)-1-[5-(2-fluorophenyl)-pyrimidin-2-yl]-N-methyl-spiro[1,2-dihydro-indole-3,1′-cyclopropane]-6-carboxylic acid amide] | < 0.1 µM |
| O=C(c1ccc2c(c1)N(c1ncc(-c3ccccc3F)cn1)CC21CC1)N1CC[C@@H](CO)C1 [Compound 311, [1-[5-(2-Fluorophenyl)-pyrimidin-2-yl]-spiro[1,2-dihydro-indole-3,1′-cyclopropane]-6-yl]-[(3R)-3-(hydroxymethyl)-pyrrolidin-1-yl]-methanone] | < 0.1 µM |
| CCNc1ccnc(-c2cnc(N3CC4(CC4)c4ccc(C(=O)N(C)CCO)cc43)nc2)c1 [Compound 316, 1-[5-(4-Ethylamino-pyridin-2-yl)-pyrimidin-2-yl]-N-(2-hydroxy-ethyl)-N-methyl-spiro[1,2-dihydro-indole-3,1′-cyclopropane]-6-carboxylic acid amide] | < 0.1 µM |
| Nc1ccnc(-c2cnc(N3CC4(CC4)c4ccc(C(=O)N5CCNC(=O)C5)cc43)nc2)c1 [Compound 258, 4-[1-[5-(4-Amino-pyridin-2-yl)-pyrimidin-2-yl]-spiro[1,2-dihydro-indole-3,1′-cyclopropane]-6-carbonyl]-piperazin-2-one] | < 0.1 µM |
| CCc1ccnc(-c2cnc(N3CC4(CC4)c4ccc(C(=O)N(C)CCO)cc43)nc2)c1 [Compound 241, 1-[5-(4-Ethyl-pyridin-2-yl)-pyrimidin-2-yl]-N-(2-hydroxy-ethyl)-N-methyl-spiro[1,2-dihydro-indole-3,1′-cyclopropane]-6-carboxylic acid amide] | < 0.1 µM |
| CCNc1ccc(F)c(-c2cnc(N3CC4(CC4)c4ccc(C(=O)N(C)CCO)cc43)nc2)c1 [Compound 343, 1-[5-(5-Ethylamino-2-fluoro-phenyl)-pyrimidin-2-yl]-N-(2-hydroxy-ethyl)-N-methyl-spiro[1,2-dihydro-indole-3,1′-cyclopropane]-6-carboxylic acid amide] | < 0.1 µM |
| O=C(c1ccc2c(c1)N(c1ncc(-c3cccc(O)c3)cn1)CC21CC1)N1CC2CC1CN2 (stereo not shown) [Compound 250, (2,5-Diazabicyclo[2.2.1]heptan-2-yl)-[1-[5-(3-hydroxyphenyl)-pyrimidin-2-yl]-spiro[1,2-dihydro-indole-3,1′-cyclopropane]-6-yl]-methanone] | < 0.1 µM |
| CC(=O)Nc1ccnc(-c2cnc(N3CC4(CC4)c4ccc(C(=O)N5CCOCC5)cc43)nc2)c1 [Compound 346, N-[2-[2-[6-(Morpholine-4-carbonyl)-spiro[1,2-dihydro-indole-3,1′-cyclopropane]-1-yl]-pyrimidin-5-yl]-pyridin-4-yl]-acetamide] | < 0.1 µM |
| C[C@H](O)CN1CCN(C(=O)c2ccc3c(c2)N(c2ncc(-c4ccccc4F)cn2)CC32CC2)CC1 [Compound 240, [1-[5-(2-Fluorophenyl)-pyrimidin-2-yl]-spiro[1,2-dihydro-indole-3,1′-cyclopropane]-6-yl]-[4-[(2S)-2-hydroxy-propyl]-piperazin-1-yl]-methanone] | 0.1 to 1 µM |
